Source: patent US20070015733A1, “Aryl Phosphate Derivatives of d4T having Activity Against Resistant HIV Strains” (Parker Hughes Institute, priority 1998, published 2007)
Like-named read-outs stand apart in the source and are kept apart here.

Test system: HIV-1 HTLVIIIB
Experiment: microbe, parasite or virus in culture
Outline: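 PHA- and IL-2-stimulated human PBMC from HIV-negative donors were infected with HIV-1 (MOI 0.001–0.1, 1 h, 37 °C) and cultured with compound (0.0001–100 μM). Supernatant p24 was measured by EIA on day 6 or 7; percent inhibition was calculated against untreated infected controls and IC50 was derived from it.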

[1] = Human immunodeficiency virus 1, PBMC
[2] = Human immunodeficiency virus 1, PBMC, in Homo sapiens, read-out: IC50, compound 1c compared to zidovudine
[3] = Human immunodeficiency virus 1, PBMC, in Homo sapiens, read-out: IC90, compound 1c compared to zidovudine
[4] = Human immunodeficiency virus 1, read-out: IC50 HTLVIIIB

Row | Compound | SI(CC50/IC50) | IC50 [1] [nM] | IC90 [1] [nM] | IC50 [2] [nM] | IC90 [3] [nM] | IC50 [4] [nM] | SI(CC50/IC50) (HTLVIIIB, PBMC)
1 | Cc1cn([C@H]2C[C@H](N=[N+]=[N-])[C@@H](CO)O2)c(=O)[nH]c1=O [AZT, 3′-azido-3′-deoxythymidine] | 31,867 | 3 ± 1 | 93 ± 34 | 3 ± 1 | 93 ± 34 | 4 ± 1 | –
2 | COC(=O)C(C)NP(=O)(OC[C@@H]1C=C[C@H](n2cc(C)c(=O)[nH]c2=O)O1)Oc1ccc(Br)cc1 (stereo partly drawn) [Compound 1c, d4T-5′-[p-bromo-phenylmethoxyalaninyl phosphate]] | – | 1 | 52 ± 24 | 1 | 45 ± 28 | 1 | –
3 | Cc1cn([C@H]2C=C[C@@H](CO)O2)c(=O)[nH]c1=O [d4T, 2′,3′-didehydro-2′,3′-dideoxythymidine] | 196 | 23 ± 8 | 1470 ± 614 | – | – | 18 | –
4 | Cc1ccnc2c1NC(=O)c1cccnc1N2C1CC1 [nevirapine] | – | 24 ± 7 | 1100 ± 478 | – | – | – | 213
